Assay results: ChEMBL document CHEMBL5608141, “Identification of compartment-specific drug sensitivities in CRC organoid-stroma co-cultures” (2024)

How the values were obtained:
Assay type in all cases: functional, Homo sapiens
Parameters in all cases: dose or concentration left out as unconfirmed
[1] = system: Colon cancer organoid; assay: Identification of compartment-specific drug sensitivities in O06 CRC organoid-stroma F06 CAF co-cultures. Organoid is transduced with Lucferase2-P2A-EGFP lentivirus, fibroblast with Renilla-dsRed lentivirus. Dual-Glo Luciferase assay is used to report viability data.
[2] = system: Colon cancer organoid; assay: Identification of compartment-specific drug sensitivities in O20 CRC organoid-stroma F20 CAF co-cultures. Organoid is transduced with Lucferase2-P2A-EGFP lentivirus, fibroblast with Renilla-dsRed lentivirus. Dual-Glo Luciferase assay is used to report viability data.
[3] = system: Colon cancer organoid; assay: Identification of compartment-specific drug sensitivities in O14 CRC organoid-stroma F14 CAF co-cultures. Organoid is transduced with Lucferase2-P2A-EGFP lentivirus, fibroblast with Renilla-dsRed lentivirus. Dual-Glo Luciferase assay is used to report viability data.
[4] = Transduced with Lucferase2-P2A-EGFP lentivirus
[5] = Transduced with Renilla-dsRed lentivirus

SMILES	Cell Viability [1, 4] [%]	Cell Viability [1, 5] [%]	Cell Viability [2, 4] [%]	Cell Viability [2, 5] [%]	Cell Viability [3, 4] [%]	Cell Viability [3, 5] [%]
COc1cc(N2CCC(O)CC2)ccc1Nc1cc(Nc2ccccc2S(=O)(=O)C(C)C)c2cc[nH]c2n1	85.241	81.2438	108.341	84.332	92.4485	85.3579
CCc1cccc(CC)c1NC(=O)c1nn(C)c2c1CCc1cnc(Nc3ccc(C(=O)NC4CCN(C)CC4)cc3OC(F)(F)F)nc1-2	8.756	150.393	94.5822	107.437	11.9525	117.182
COc1cc(C)c(Sc2cnc(NC(=O)c3ccc(CNC(C)C(C)(C)C)cc3)s2)cc1C(=O)N1CCN(C(C)=O)CC1 (stereo not drawn)	97.8632	73.4932	91.6907	97.5626	52.0168	58.5352
O=C(Nc1cccnc1)c1cc(-c2ccnc(F)c2)ccc1OCc1ccccc1	87.3368	83.1264	125.357	104.766	142.728	107.033
CNc1nc(Nc2cnn([C@H]3CCN(C4COC4)C[C@@H]3F)c2Cl)ncc1C(F)(F)F	94.4056	87.0484	197.594	86.9942	109.423	94.4968
CC(C)(O)CNc1ncc(-c2ccnc(Nc3ccnc(Cl)c3)n2)c(CC2CC2)n1	30.6205	168.017	67.8279	172.835	84.1319	170.669
CCOc1cc(N2CCC(O)CC2)ccc1Nc1ncc2c(n1)N(C1CCCC1)CCC(=O)N2C	80.3618	151.464	51.7552	144.517	84.5477	160.888
CCNC(=O)c1cc2c(N3CCOC[C@@H]3C)ccnc2n1C	84.5961	69.3706	107.341	102.95	116.155	112.32
CCC(=O)Nc1cccc(Oc2nc(Nc3ccc(N4CCN(C)CC4)cc3OC)ncc2Cl)c1	92.8013	94.5997	125.304	105.023	157.299	90.5023
CCc1cc(Nc2nccc(-c3c(-c4ccc(OC)c(C(=O)Nc5c(F)cccc5F)c4)nc4ccccn34)n2)c(OC)cc1N1CCC(N2CCN(S(C)(=O)=O)CC2)CC1	86.7992	78.7013	117.027	82.2783	103.898	108.534
CC(C)S(=O)(=O)c1ccc2nccc(Nc3ccc4scnc4c3)c2c1	84.0973	95.5761	147.82	98.2209	128.948	98.4032
Cc1cnc(Nc2ccc(F)cc2Cl)nc1-c1c[nH]c(C(=O)N[C@H](CO)c2cccc(Cl)c2)c1	51.8597	63.6391	6.88	113.857	47.0783	28.0153
CNC(=O)Nc1ccc(-c2nc(N3CC4CCC(C3)O4)c3cnn(C4CCC5(CC4)OCCO5)c3n2)cc1	4.885	48.532	5.83	97.6391	29.4838	39.9364
